Bounds are passed on as bounds.

For this test, the target named is T1, CRAC channel (Homo sapiens, UniProt Q96D31).
T1 construct: endogenous in cells; host or cells: HEK293 (ECACC), untransfected
T1 sequence (Q96D31 whole entry): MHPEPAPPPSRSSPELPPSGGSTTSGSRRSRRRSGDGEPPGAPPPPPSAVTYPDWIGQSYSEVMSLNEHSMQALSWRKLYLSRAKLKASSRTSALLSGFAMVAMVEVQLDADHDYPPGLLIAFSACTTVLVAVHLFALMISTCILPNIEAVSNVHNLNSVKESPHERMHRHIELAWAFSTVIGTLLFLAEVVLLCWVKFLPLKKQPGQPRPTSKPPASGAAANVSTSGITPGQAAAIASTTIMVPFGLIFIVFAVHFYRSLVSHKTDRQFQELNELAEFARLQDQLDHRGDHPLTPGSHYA
The test is described as follows: HEK Calcium Influx Assay (FLIPR), inhibition of store-operated Ca2+ entry after thapsigargin store depletion. The conditions noted are these: 10 μM compound, HEK293 cells, read-out: % inhib. [@ 10 μM] FLIPR. Format: cell-based. As for the experimental part: The effect of compounds of the invention on intracellular [Ca^2+] was tested in the HEK293 cell line (ECACC).
HEK293 cells were cultured in DMEM/F12/Glutamax (Gibco) containing 10% FCS (Gibco), and maintained at 37° C., 5% CO2. Cell were split twice a week [3*10^6 (Mon-Thu) and 1*10^6 (Thu-Mon) cells/50 ml medium in 1-175 ZK culture flasks, respectively]. Twenty four hours pre-experiment, cells were seeded on 96 well plates (Poly-D-Lysine 96 well Black/Clear Plate, BD Biocoat REF 356640) at a density of 40,000 cells/well in DMEM/F12 (Gibco) containing 10% FCS (Gibco), and maintained at 37° C., 5% CO2.
Prior to store-depletion, cell culture medium was removed and cells were loaded with the Calcium-sensitive fluorescent dye comprised within the Calcium-4-assay kit (Molecular Devices) in nominally Ca^2+-free HBS buffer (140 mM NaCl, 4 mM KCl, 0.2 mM MgCl2, 11 mM D-glucose, and 10 mM HEPES, pH 7.4) according to manufacturer's instruction for 60 min at 37° C., 5% CO2.
Passive depletion of intracellular Ca^2+-stores was then triggered by employing the SERCA inhibitor thapsigargin (2 μM final) for 10 min in the dark (RT). To prevent immediate Ca^2+-entry via the activated store-operated channels (SOCs), cells were maintained in Ca^2+-free HBS buffer comprising 100 μM EGTA during store-depletion.
Intracellular changes in [Ca^2+] were subsequently monitored with the FLIPR device (Molecular Devices). In brief, baseline imaging post-store depletion was allowed for 1 min before adjusting the extracellular buffer to 3 mM CaCl2. Increases in intracellular [Ca^2+] due to pre-activated SOC channels were monitored for 15 min until intracellular Ca^2+ levels had declined into a steady-state. Finally, compounds were administered, and Ca^2+ signals were recorded for additional 10 min.
Inhibition of endogenous SOC in HEK293 cells was quantified employing the average Ca^2+ signal measured from 9.5-10 min post-administration. Zero percent inhibition (MAX) was defined as the Ca^2+ signal recorded from wells to which DMSO-only had been added instead of compound. Hundred percent inhibition (MIN) was defined as the signal obtained from wells in which cells haven't been treated with TG prior to Ca^2+ addition and to which DMSO-only had been added instead of compound. For routine IC50 determinations of compounds, 8 concentrations of a serial dilution (1:3.16) were tested, starting off from 10 μM. Reliable IC50's could consequently be determined only, if they were at least sub 2.5-3 μM.
Regarding `Cc1sc(-c2ccccn2)nc1N1CCc2[nH]c(-c3c(F)cccc3F)cc2C1=O` [Example 5, 2-(2,6-Difluoro-phenyl)-5-(5-methyl-2-pyridin-2-yl-thiazol-4-yl)-1,5,6,7-tetrahydro-pyrrolo[3,2-c]pyridin-4-one], the inhibition at 10 µM fell in the range of 50 to 70%.

For the molecule `Cc1sc(-c2cccnc2)nc1N1CCc2[nH]c(-c3c(F)cccc3Cl)cc2C1` [Example 17, 4-[2-(2-Chloro-6-fluoro-phenyl)-4,5,6,7-tetrahydro-1H-pyrrolo[3,2-c]pyridin-5-yl]-5-methyl-2-pyridin-3-yl-thiazole], the inhibition at 10 µM is more than 70%.

For `Cc1ccc(C#N)cc1N1CCc2[nH]c(-c3c(F)cccc3F)cc2C1` [Example 29, 3-[2-(2,6-Difluoro-phenyl)-4,5,6,7-tetrahydro-1H-pyrrolo[3,2-c]pyridin-5-yl]-4-methyl-benzonitrile], the inhibition at 10 µM fell in the range of 50 to 70%.

With `Cc1cc(Cl)ncc1N1CCc2[nH]c(-c3c(F)cccc3F)cc2C1=O` [Example 38, 5-(6-Chloro-4-methyl-pyridin-3-yl)-2-(2,6-difluoro-phenyl)-1,5,6,7-tetrahydro-pyrrolo[3,2-c]pyridin-4-one], the inhibition at 10 µM was more than 70%.

As for `COc1cc(C)c(N2CCc3[nH]c(-c4c(F)cccc4F)cc3C2=O)cn1` [Example 39, 2-(2,6-Difluoro-phenyl)-5-(6-methoxy-4-methyl-pyridin-3-yl)-1,5,6,7-tetrahydro-pyrrolo[3,2-c]pyridin-4-one], the inhibition at 10 µM was 50 to 70%.

As to `COc1cc(C#N)ccc1N1CCc2[nH]c(-c3c(F)cccc3Cl)cc2C1=O` [Example 41, 4-[2-(2-Chloro-6-fluoro-phenyl)-4-oxo-1,5,6,7-tetrahydro-pyrrolo[3,2-c]pyridin-5-yl]-3-methoxy-benzonitrile], the inhibition at 10 µM was 50 to 70%.

On to `Cc1sc(-c2cccnc2)nc1N1CCc2[nH]c(-c3c(F)cccc3Cl)cc2C1=O` [Example 42, 2-(2-Chloro-6-fluoro-phenyl)-5-(5-methyl-2-pyridin-3-yl-thiazol-4-yl)-1,5,6,7-tetrahydro-pyrrolo[3,2-c]pyridin-4-one], for which the inhibition at 10 µM was more than 70%.

On to `Cc1sc(-c2cccnc2)nc1N1CCc2[nH]c(-c3ccc(Cl)nc3)cc2C1=O` [Example 43, 2-(6-Chloro-pyridin-3-yl)-5-(5-methyl-2-pyridin-3-yl-thiazol-4-yl)-1,5,6,7-tetrahydro-pyrrolo[3,2-c]pyridin-4-one], for which the inhibition at 10 µM was in the range of 50 to 70%.

As to `Cc1cc(Cl)ncc1N1CCc2[nH]c(-c3ccc(F)cc3F)cc2C1=O` [Example 44, 5-(6-Chloro-4-methyl-pyridin-3-yl)-2-(2,4-difluoro-phenyl)-1,5,6,7-tetrahydro-pyrrolo[3,2-c]pyridin-4-one], the inhibition at 10 µM was 50 to 70%.

Take `Cc1cc(Cl)ncc1N1CCc2[nH]c(-c3c(F)cccc3Cl)cc2C1=O` [Example 45, 2-(2-Chloro-6-fluoro-phenyl)-5-(6-chloro-4-methyl-pyridin-3-yl)-1,5,6,7-tetrahydro-pyrrolo[3,2-c]pyridin-4-one]: the inhibition at 10 µM is more than 70%.

Consider `O=C1c2cc(-c3c(F)cccc3F)[nH]c2CCN1c1c(F)cccc1F` [Example 46, 2,5-Bis(2,6-difluoro-phenyl)-1,5,6,7-tetrahydro-pyrrolo[3,2-c]pyridin-4-one], for which the inhibition at 10 µM was 50 to 70%.

For `Cc1sccc1N1CCc2[nH]c(-c3c(F)cccc3F)cc2C1=O` [Example 47, 2-(2,6-Difluoro-phenyl)-5-(2-methyl-thiophen-3-yl)-1,5,6,7-tetrahydro-pyrrolo[3,2-c]pyridin-4-one], the inhibition at 10 µM was more than 70%.

Turning to `Cc1sc(C2CC2)nc1N1CCc2[nH]c(-c3c(F)cccc3F)cc2C1=O` [Example 48, 5-(2-Cyclopropyl-5-methyl-thiazol-4-yl)-2-(2,6-difluoro-phenyl)-1,5,6,7-tetrahydro-pyrrolo[3,2-c]pyridin-4-one], the inhibition at 10 µM was more than 70%.

In the case of `O=C1c2cc(-c3c(F)cccc3Cl)[nH]c2CCN1c1c(F)cccc1F` [Example 49, 2-(2-Chloro-6-fluoro-phenyl)-5-(2,6-difluoro-phenyl)-1,5,6,7-tetrahydro-pyrrolo[3,2-c]pyridin-4-one], the inhibition at 10 µM was more than 70%.

For the molecule `Cc1ccc(Cl)cc1N1CCc2[nH]c(-c3c(F)cccc3Cl)cc2C1=O` [Example 50, 2-(2-Chloro-6-fluoro-phenyl)-5-(5-chloro-2-methyl-phenyl)-1,5,6,7-tetrahydro-pyrrolo[3,2-c]pyridin-4-one], the inhibition at 10 µM is 50 to 70%.

For the molecule `Cc1sccc1N1CCc2[nH]c(-c3c(F)cccc3Cl)cc2C1=O` [Example 51, 2-(2-Chloro-6-fluoro-phenyl)-5-(2-methyl-thiophen-3-yl)-1,5,6,7-tetrahydro-pyrrolo[3,2-c]pyridin-4-one], the inhibition at 10 µM was more than 70%.

As for `Cc1sc(C2CC2)nc1N1CCc2[nH]c(-c3c(F)cccc3Cl)cc2C1=O` [Example 52, 2-(2-Chloro-6-fluoro-phenyl)-5-(2-cyclopropyl-5-methyl-thiazol-4-yl)-1,5,6,7-tetrahydro-pyrrolo[3,2-c]pyridin-4-one], the inhibition at 10 µM is more than 70%.

`Cc1sc(-c2ncco2)nc1N1CCc2[nH]c(-c3c(F)cccc3Cl)cc2C1=O` [Example 53, 2-(2-Chloro-6-fluoro-phenyl)-5-(5-methyl-2-oxazol-2-yl-thiazol-4-yl)-1,5,6,7-tetrahydro-pyrrolo[3,2-c]pyridin-4-one]: the inhibition at 10 µM is more than 70%.

For `Cc1sc(-c2ncco2)nc1N1CCc2[nH]c(-c3c(F)cccc3F)cc2C1=O` [Example 54, 2-(2,6-Difluoro-phenyl)-5-(5-methyl-2-oxazol-2-yl-thiazol-4-yl)-1,5,6,7-tetrahydro-pyrrolo[3,2-c]pyridin-4-one], the inhibition at 10 µM was more than 70%.

As for `Cc1sccc1N1CCc2[nH]c(-c3c(F)cccc3F)cc2C1` [Example 55, 2-(2,6-Difluoro-phenyl)-5-(2-methyl-thiophen-3-yl)-4,5,6,7-tetrahydro-1H-pyrrolo[3,2-c]pyridine], the inhibition at 10 µM is more than 70%.

`Cc1sc(C2CC2)nc1N1CCc2[nH]c(-c3c(F)cccc3F)cc2C1` [Example 56, 2-Cyclopropyl-4-[2-(2,6-difluoro-phenyl)-4,5,6,7-tetrahydro-1H-pyrrolo[3,2-c]pyridin-5-yl]-5-methyl-thiazole]: the inhibition at 10 µM was more than 70%.

`Cc1sc(-c2ncco2)nc1N1CCc2[nH]c(-c3c(F)cccc3F)cc2C1` [Example 57, 2-[4-[2-(2,6-Difluoro-phenyl)-4,5,6,7-tetrahydro-1H-pyrrolo[3,2-c]pyridin-5-yl]-5-methyl-thiazol-2-yl]-oxazole]: the inhibition at 10 µM was more than 70%.

In the case of `Cc1cc(N2CCc3[nH]c(-c4c(F)cccc4F)cc3C2)n(C)n1` [Example 58, 2-(2,6-Difluoro-phenyl)-5-(2,5-dimethyl-2H-pyrazol-3-yl)-4,5,6,7-tetrahydro-1H-pyrrolo[3,2-c]pyridine], the inhibition at 10 µM was more than 70%.

For `Cc1sccc1N1CCc2[nH]c(-c3c(F)cccc3Cl)cc2C1` [Example 60, 2-(2-Chloro-6-fluoro-phenyl)-5-(2-methyl-thiophen-3-yl)-4,5,6,7-tetrahydro-1H-pyrrolo[3,2-c]pyridine], the inhibition at 10 µM was more than 70%.

With `Cc1sc(C2CC2)nc1N1CCc2[nH]c(-c3c(F)cccc3Cl)cc2C1` [Example 61, 4-[2-(2-Chloro-6-fluoro-phenyl)-4,5,6,7-tetrahydro-1H-pyrrolo[3,2-c]pyridin-5-yl]-2-cyclopropyl-5-methyl-thiazole], the inhibition at 10 µM was more than 70%.

With `Cc1sc(-c2ncco2)nc1N1CCc2[nH]c(-c3c(F)cccc3Cl)cc2C1` [Example 62, 2-[4-[2-(2-Chloro-6-fluoro-phenyl)-4,5,6,7-tetrahydro-1H-pyrrolo[3,2-c]pyridin-5-yl]-5-methyl-thiazol-2-yl]-oxazole], the inhibition at 10 µM is more than 70%.

As to `Cc1cc(N2CCc3[nH]c(-c4c(F)cccc4Cl)cc3C2)n(C)n1` [Example 63, 2-(2-Chloro-6-fluoro-phenyl)-5-(2,5-dimethyl-2H-pyrazol-3-yl)-4,5,6,7-tetrahydro-1H-pyrrolo[3,2-c]pyridine], the inhibition at 10 µM is more than 70%.

Take `CNC(=O)c1ccc(N2CCc3[nH]c(-c4c(F)cccc4F)cc3C2)c(C)c1` [Example 80, 4-[2-(2,6-Difluoro-phenyl)-4,5,6,7-tetrahydro-1H-pyrrolo[3,2-c]pyridin-5-yl]-N,3-dimethyl-benzamide]: the inhibition at 10 µM was more than 70%.

The values are drawn from patent US20160151337A1, “ANNELATED PYRROLES AND THEIR USE AS CRAC INHIBITORS” (Grünenthal GmbH, priority 2013, published 2016).
